Data on 8 compounds can be found in US8372951B2, “Cell penetrating peptides for intracellular delivery” (National Tsing Hua University, priority 2010, dated 2013).

What all share (type): cell-based
Data set [1] concerns A549. Description: MTT cell viability assay. Particulars: A549, 24 h. Here is the method: (§1) FIG. 7 illustrates in vitro delivery of peptidomimetic drug. (A). Cell viability assay. Beas-2B cells were incubated with 50 μM (KLAKLAK)2-ECP(32-41), ECP(32-41), or (KLAKLAK)2, at 37° C. for 24 h. Effects of (KLAKLAK)2-ECP(32-41) on the cell viability of Beas-2B, A549 and CHO-K1 cells (B), as well as Caco-2 and AGS cells (C). Cell viability in each group was determined by MTT assay and each experiment was performed in triplicate.
(§2) The cytotoxic effect of peptides on the cell growth were determined by a colorimetric assay using 3-(4,5-dimethylthiazol-2-yl)-2,5-diphenyltetrazolium bromide (MTT) (US Biological, Marblehead, Mass.). Cells were plated in a 96-well plate (1.0×10^4 cells/well) and incubated at 37° C. overnight. Each sample was incubated with the indicated concentration (1-100 μM) of peptide. Twenty-four hours after treatment with the indicated peptide, MTT was added, and cell growth was monitored at A570 to measure the mitochondrial-dependent formation of a colored product.
A general note: Tetrazolium dyes change colour on reduction, which living cells bring about.

The subject of data set [2] is AGS. Description: MTT cell viability assay. Conditions: 24 h. Here is the method: as §1, §2
The test system of data set [3] is Beas-2B cells. Description: MTT cell viability assay. Conditions: for cytotoxicity / cell death: Beas-2B cells, 24 h, MTT. Here is the method:
as §1, §2

Data set [4] concerns CHO-K1. In words: MTT cell viability assay. Conditions: CHO-K1, 24 h. Here is the method: as §1, §2
In data set [5] the test system is Caco-2. In words: MTT cell viability assay. Conditions: Caco-2, 24 h. Here is the method: as §1, §2
Data set [6] relates to Beas-2B cells. In words: Flow cytometry of cellular uptake of fluorescence-labeled peptides/proteins. Conditions: 37° C., 30 min; for cellular uptake of peptide cargo: 5 μM. Here is the method: FIG. 2 illustrates cellular uptake of ECP(32-41). Beas-2B cells were incubated with 20 μM FITC (control) or FITC-ECP(32-41) at 37° C. for 30 min. After treatment, the cells were washed with 500 μl phosphate buffered saline (PBS) and treated with trypsin at 37° C. for 10 min to remove adherent extracellular peptides. The cells were resuspended in 500 μl PBS and analyzed by flow cytometry. The cellular uptake activity was expressed as mean fluorescence intensity (MFI) using FACScalibur (BD Biosciences, Franklin Lakes, N.J.) flow cytometer (FACS). The data represented the means of triplicate incubations.
FIG. 5 illustrates in vitro delivery of peptide. Beas-2B cells were incubated with 5 μM FITC (control), FITC-Dp2 or FITC-Dp2-ECP(32-41) at 37° C. for 1 h. After treatment, cells were washed with 500 μl PBS and treated with trypsin at 37° C. for 10 min to remove adherent extracellular peptides. The cells were resuspended in 500 μl PBS and analyzed by flow cytometry. The cellular uptake activity was expressed as mean fluorescence intensity (MFI) using FACScalibur (BD Biosciences, Franklin Lakes, N.J.) flow cytometer (FACS). The data represented the means of triplicate incubations.
FIG. 6 illustrates in vitro delivery of protein. […] The cells were resuspended in 500 μl PBS and analyzed by flow cytometry. The cellular uptake activity was expressed as mean fluorescence intensity (MFI) using FACScalibur (BD Biosciences, Franklin Lakes, N.J.) flow cytometer (FACS). […]
Cells (2.0×10^5 cells/well) were plated into a 6-well microplate and cultured for 24 h in RPMI 1640 medium containing 10% heat-inactivated bovine serum (Beas-2B). After complete adhesion, the cells were incubated at 37° C. with fluorescence-labeled peptides dissolved in fresh serum-containing medium prior to washing with PBS. […] The washing cycle was repeated again and the cells were suspended in PBS and subjected to fluorescence analysis on a FACScalibur (BD Biosciences, Franklin Lakes, N.J.) flow cytometer (FACS) using 488-nm laser excitation and a 515-545-nm emission filter. […]
In general terms: A flow cytometer gives signals particle by particle.

Data set [7] has as its system Beas-2B cells. Description: Confocal microscopy of cellular uptake and intracellular distribution. Conditions: for entry into Beas-2B cells (minimal length requirement): 5 μM FITC-labeled peptide, 30 min. Here is the method: FIG. 3 illustrates intracellular distribution of cell-penetrating ECP(32-41). Beas-2B cells were incubated with 5 μM FITC-ECP(32-41) at 37° C. for 5 or 60 min. After wash with 1 ml PBS buffer twice, the cellular uptake was analyzed by confocal laser scanning microscopy. Magnification ford: 63×. Scale bar: 50
FIG. 4 illustrates minimal length requirement of cell penetration peptide. Beas-2B cells were incubated with 5 μM FITC-ECP(32-41), FITC-ECP(32-41)D1, and FITC-ECP(32-41)D2 separately at 37° C. for 30 min. After wash with 1 ml PBS buffer twice, the cellular uptake was analyzed by confocal laser scanning microscopy. Magnification fold: 40×. Scale bar: 50
Cells (1.0×10^4 cells/well) were plated on 18-mm glass-bottomed dishes (Marienfeld, Germany) and cultured in medium containing 10% heat-inactivated fetal bovine serum for 24 h. After complete adhesion, the cell culture medium was removed, and then incubated at 37° C. in fresh medium containing the fluorescence-labeled peptides. The cells were washed with PBS, then fixed by 2% (w/v) paraformaldehyde (PFA) in PBS for 15 min, and 50 mM ammonium chloride in PBS was added to quench with fluoresce from PFA. Distribution of the fluorescence-labeled peptides in the cells was analyzed using a confocal scanning laser microscope (Zeiss).

“Also recorded” adds a separate entry of the source. Residues, ends and D or L forms follow the SMILES beside them. No end group written: not given here. *: point of attachment. FITC = O=C1OC2(c3ccc(O)cc3Oc3cc(O)ccc32)c2ccc(NC(=S)*)cc21

For the compound `CC(C)C[C@H](NC(=O)[C@H](CCCCN)NC(=O)[C@H](C)NC(=O)[C@H](CC(C)C)NC(=O)[C@H](CCCCN)NC(=S)Nc1ccc2c(c1)C(=O)OC21c2ccc(O)cc2Oc2cc(O)ccc21)C(=O)N[C@@H](C)C(=O)N[C@@H](CCCCN)C(=O)N[C@@H](CCCCN)C(=O)N[C@@H](CC(C)C)C(=O)N[C@@H](C)C(=O)N[C@@H](CCCCN)C(=O)N[C@@H](CC(C)C)C(=O)N[C@@H](C)C(=O)N[C@@H](CCCCN)C(=O)N[C@@H](CC(N)=O)C(=O)N[C@@H](Cc1ccc(O)cc1)C(=O)N[C@@H](CCCNC(=N)N)C(=O)N[C@@H](Cc1c[nH]c2ccccc12)C(=O)N[C@@H](CCCNC(=N)N)C(=O)N[C@@H](CS)C(=O)N[C@@H](CCCCN)C(=O)N[C@@H](CC(N)=O)C(=O)N[C@@H](CCC(N)=O)C(=O)N[C@@H](CC(N)=O)C(=O)O` [(KLAKLAK)2-ECP(32-41)] ({FITC}-KLAKLAKKLAKLAKNYRWRCKNQN-OH; N-terminus and C-terminus assumed), the “cytotoxicity (cell viability)” value in data set [1], in data set [2], in data set [4] and in data set [5] was “strong cytotoxicity” in each case. The “cytotoxicity / cell death” value in data set [3] (listed as FITC-(KLAKLAK)2-ECP(32-41)) is given as “induce markedly cell death; also recorded: strong cytotoxicity”.

As for “(KLAKLAK)2: previously reported proapoptotic domain, peptidomimetic, SEQ ID NO: 6 (KLAKLAKKLAKLAK; (KLAKLAK)2) [reference compound]”, the cell-penetrating activity result in data set [3] (stated with the Beas-2B viability results (FIG. 7A)) is listed as “lacking”.

In the case of “Dp2-ECP(32-41): recombinant Dp2 peptide fused with ECP(32-41), SEQ ID NO: 5 (IIHRGKPFQLEAVNYRWRCKNQN; Dp2-ECP(32-41))”, in data set [6], the “cellular uptake of peptide cargo” value is reported as “able to enter the cells”.

Turning to “ECP(32-41) D1: C-terminally truncated ECP(32-41) peptide, SEQ ID NO: 2 (NYRWRCKNQ; ECP(32-41)D1)”, the “entry into Beas-2B cells (minimal length requirement)” value (shortened to “entry into Beas-2B cells”) in data set [7] (37° C.) is listed as “entered Beas-2B cells”.

Turning to “ECP(32-41): 10 amino acid cell penetrating peptide from eosinophil cationic protein residues 32-41, SEQ ID NO: 1 (NYRWRCKNQN; ECP(32-41))”, the “entry into Beas-2B cells” value in data set [7] (37° C.) is on record as “entered Beas-2B cells”. Also, the intracellular localization entry in data set [7] (5 μM, 37° C.) is “both cytoplasm and nucleus”. Moreover, in data set [3], the “cytotoxicity / cell death” value was “lacking”.

Consider “ECP(32-41)D2: C-terminally truncated ECP(32-41) peptide, SEQ ID NO: 3 (NYRWRCKN; ECP(32-41)D2)”, for which the “entry into Beas-2B cells” value in data set [7] (37° C.) is on record as “could not”.

With “FITC-Dp2: Dp2 peptide (SEQ ID NO: 4), the group 2 allergen of Dermatophagoides pteronyssinus, FITC-labeled (IIHRGKPFQLEAV; not fully specified (N-terminus); also: FITC label) [reference compound]”, in data set [6], the “cellular uptake of peptide cargo” value is listed as “only Dp2-ECP(32-41) was able to enter the cells”.

Take “FITC-ECP(32-41): fluorochrome-tagged peptide, FITC-labeled ECP(32-41) (SEQ ID NO: 1) ({FITC}-NYRWRCKNQN)”: the “cellular uptake (fluorescent signal shift)” value in data set [6] (20 μM, trypsinized) is recorded as “significant uptake”. The “fluorescence signal inside the cells” value in data set [7] (5 μM, 5 min) is listed as “a clear fluorescence signal inside the cells”; in data set [7] (5 μM, up to 60 min), “Stronger signal”.
